Test results taken from the supplement of paper PMC13386468.
pIC50: −log10 of the molar value.

Experiments:
Assay in all cases: IC50 for competition of protein binding to Kinobeads
Settings in all cases: assay detail: Kinobeads competition in P. falciparum blood-stage lysate
UniProt B9ZSI3 = target: UniProt B9ZSI3
UniProt C0H4R8 = target: UniProt C0H4R8
UniProt C6KT03 = target: UniProt C6KT03
UniProt C6KT64 = target: UniProt C6KT64
UniProt C6KTB4 = target: UniProt C6KTB4
UniProt C6KTB9 = target: UniProt C6KTB9
UniProt C6S3E1 = target: UniProt C6S3E1
UniProt O77328 = target: UniProt O77328
UniProt O96220 = target: UniProt O96220
UniProt O97225 = target: UniProt O97225
UniProt P27362 = target: UniProt P27362
UniProt P61076 = target: UniProt P61076
UniProt Q76NL8 = target: UniProt Q76NL8
UniProt Q7K6A8 = target: UniProt Q7K6A8
UniProt Q8I0V4 = target: UniProt Q8I0V4
UniProt Q8I1N8 = target: UniProt Q8I1N8
UniProt Q8I1V2 = target: UniProt Q8I1V2
UniProt Q8I207 = target: UniProt Q8I207
UniProt Q8I3X4 = target: UniProt Q8I3X4
UniProt Q8I3Y9 = target: UniProt Q8I3Y9
UniProt Q8I4Q5 = target: UniProt Q8I4Q5
UniProt Q8IAM2 = target: UniProt Q8IAM2
UniProt Q8IBS3 = target: UniProt Q8IBS3
UniProt Q8ID31 = target: UniProt Q8ID31
UniProt Q8IE84 = target: UniProt Q8IE84
UniProt Q8IEL1 = target: UniProt Q8IEL1
UniProt Q8IEM3 = target: UniProt Q8IEM3
UniProt Q8IHT9 = target: UniProt Q8IHT9
UniProt Q8IHZ9 = target: UniProt Q8IHZ9
UniProt Q8IIV2 = target: UniProt Q8IIV2
UniProt Q8IIV8 = target: UniProt Q8IIV8
UniProt Q8IJ74 = target: UniProt Q8IJ74
UniProt Q8IJG6 = target: UniProt Q8IJG6
UniProt Q8IJP8 = target: UniProt Q8IJP8
UniProt Q8IJX0 = target: UniProt Q8IJX0
UniProt Q8IKA0 = target: UniProt Q8IKA0
UniProt Q8IL88 = target: UniProt Q8IL88
UniProt Q8ILW6 = target: UniProt Q8ILW6
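Also: native unpurified kinases from lysate captured on beads bearing immobilized kinase inhibitors, with bead-bound kinases quantified by mass spectrometry across compound doses.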

Sequence of UniProt Q8IHZ9 (Q8IHZ9 whole entry): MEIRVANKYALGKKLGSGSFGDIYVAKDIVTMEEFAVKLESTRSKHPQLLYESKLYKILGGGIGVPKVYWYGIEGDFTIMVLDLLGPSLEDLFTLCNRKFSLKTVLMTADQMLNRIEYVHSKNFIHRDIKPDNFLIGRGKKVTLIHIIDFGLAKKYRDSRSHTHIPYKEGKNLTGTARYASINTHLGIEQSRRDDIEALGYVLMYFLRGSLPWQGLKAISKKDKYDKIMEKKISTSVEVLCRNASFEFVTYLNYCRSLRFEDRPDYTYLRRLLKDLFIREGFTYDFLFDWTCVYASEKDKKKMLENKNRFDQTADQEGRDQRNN
Sequence of UniProt Q8ILW6 (Q8ILW6 whole entry): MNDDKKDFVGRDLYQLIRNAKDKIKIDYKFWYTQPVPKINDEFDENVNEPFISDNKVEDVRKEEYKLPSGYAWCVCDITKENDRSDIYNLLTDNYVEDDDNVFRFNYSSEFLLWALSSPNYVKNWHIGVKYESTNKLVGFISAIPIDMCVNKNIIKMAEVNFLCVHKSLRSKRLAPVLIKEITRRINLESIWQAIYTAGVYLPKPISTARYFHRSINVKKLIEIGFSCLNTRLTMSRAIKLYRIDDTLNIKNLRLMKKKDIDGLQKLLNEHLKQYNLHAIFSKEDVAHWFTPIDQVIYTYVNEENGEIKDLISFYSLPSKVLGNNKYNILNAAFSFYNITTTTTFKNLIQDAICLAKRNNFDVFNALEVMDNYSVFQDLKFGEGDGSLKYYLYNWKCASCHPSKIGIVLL
Sequence of UniProt P61076 (P61076 whole entry): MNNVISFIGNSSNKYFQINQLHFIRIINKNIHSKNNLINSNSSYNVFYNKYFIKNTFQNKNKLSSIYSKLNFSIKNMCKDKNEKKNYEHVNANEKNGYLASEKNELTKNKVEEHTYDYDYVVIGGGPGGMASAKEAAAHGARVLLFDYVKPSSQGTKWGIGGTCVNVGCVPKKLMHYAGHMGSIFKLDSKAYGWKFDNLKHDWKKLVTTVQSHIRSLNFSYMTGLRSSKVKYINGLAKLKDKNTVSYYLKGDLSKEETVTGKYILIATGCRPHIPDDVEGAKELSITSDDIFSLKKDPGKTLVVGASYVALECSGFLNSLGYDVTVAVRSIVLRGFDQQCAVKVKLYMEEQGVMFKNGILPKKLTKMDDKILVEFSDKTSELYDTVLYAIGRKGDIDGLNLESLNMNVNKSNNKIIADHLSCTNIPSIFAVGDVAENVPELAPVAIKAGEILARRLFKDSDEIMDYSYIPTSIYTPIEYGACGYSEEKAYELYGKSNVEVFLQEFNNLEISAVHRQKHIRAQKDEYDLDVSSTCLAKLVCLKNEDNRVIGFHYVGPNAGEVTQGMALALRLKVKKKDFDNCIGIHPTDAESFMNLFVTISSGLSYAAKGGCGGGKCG
Sequence of UniProt Q76NL8 (Q76NL8 whole entry): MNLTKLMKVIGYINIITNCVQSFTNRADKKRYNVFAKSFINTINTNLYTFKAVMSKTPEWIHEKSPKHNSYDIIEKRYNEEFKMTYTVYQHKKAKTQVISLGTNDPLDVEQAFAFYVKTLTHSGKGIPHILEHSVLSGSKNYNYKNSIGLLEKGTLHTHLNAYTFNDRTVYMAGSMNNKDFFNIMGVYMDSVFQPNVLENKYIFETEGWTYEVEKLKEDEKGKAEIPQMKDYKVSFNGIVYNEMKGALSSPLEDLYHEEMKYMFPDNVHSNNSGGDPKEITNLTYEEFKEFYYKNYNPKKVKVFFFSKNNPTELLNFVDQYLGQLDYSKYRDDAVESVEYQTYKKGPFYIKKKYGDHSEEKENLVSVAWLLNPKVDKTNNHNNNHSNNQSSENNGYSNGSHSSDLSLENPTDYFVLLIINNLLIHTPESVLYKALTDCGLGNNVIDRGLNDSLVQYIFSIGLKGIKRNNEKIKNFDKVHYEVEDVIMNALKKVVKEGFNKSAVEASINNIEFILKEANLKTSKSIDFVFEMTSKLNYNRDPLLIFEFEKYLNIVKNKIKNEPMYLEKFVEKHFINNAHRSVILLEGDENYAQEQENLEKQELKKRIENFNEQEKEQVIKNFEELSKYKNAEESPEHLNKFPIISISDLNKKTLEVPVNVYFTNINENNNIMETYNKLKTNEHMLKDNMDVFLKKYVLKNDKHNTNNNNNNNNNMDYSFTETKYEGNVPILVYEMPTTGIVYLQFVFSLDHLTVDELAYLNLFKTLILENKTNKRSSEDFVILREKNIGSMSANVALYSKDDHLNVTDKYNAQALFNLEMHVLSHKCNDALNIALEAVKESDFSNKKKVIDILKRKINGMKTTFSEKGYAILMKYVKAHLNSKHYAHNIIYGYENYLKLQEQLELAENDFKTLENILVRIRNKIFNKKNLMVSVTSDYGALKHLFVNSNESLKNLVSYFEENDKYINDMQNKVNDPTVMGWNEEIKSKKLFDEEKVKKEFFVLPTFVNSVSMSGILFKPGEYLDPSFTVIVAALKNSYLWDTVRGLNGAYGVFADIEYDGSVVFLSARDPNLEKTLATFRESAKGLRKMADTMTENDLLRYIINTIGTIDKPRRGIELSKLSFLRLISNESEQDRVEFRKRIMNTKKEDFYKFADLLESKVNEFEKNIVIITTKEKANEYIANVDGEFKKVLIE
Sequence of UniProt P27362 (P27362 whole entry): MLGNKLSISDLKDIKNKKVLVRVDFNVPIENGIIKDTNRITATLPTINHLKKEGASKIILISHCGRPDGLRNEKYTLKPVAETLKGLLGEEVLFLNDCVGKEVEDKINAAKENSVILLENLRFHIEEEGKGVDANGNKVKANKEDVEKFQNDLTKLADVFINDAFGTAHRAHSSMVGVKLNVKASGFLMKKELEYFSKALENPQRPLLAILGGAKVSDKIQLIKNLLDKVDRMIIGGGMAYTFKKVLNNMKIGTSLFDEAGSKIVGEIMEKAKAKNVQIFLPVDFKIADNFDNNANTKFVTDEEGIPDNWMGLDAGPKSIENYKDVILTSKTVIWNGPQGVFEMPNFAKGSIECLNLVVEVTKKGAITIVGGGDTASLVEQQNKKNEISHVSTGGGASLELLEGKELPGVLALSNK
Sequence of UniProt Q8I3X4 (Q8I3X4 whole entry): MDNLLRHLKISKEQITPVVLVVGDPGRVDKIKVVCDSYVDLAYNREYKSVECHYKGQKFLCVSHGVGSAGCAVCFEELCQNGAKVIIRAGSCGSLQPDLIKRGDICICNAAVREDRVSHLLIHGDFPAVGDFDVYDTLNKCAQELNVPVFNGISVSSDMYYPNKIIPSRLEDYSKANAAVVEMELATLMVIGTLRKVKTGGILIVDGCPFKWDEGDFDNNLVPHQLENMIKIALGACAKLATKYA

Question: Which results are given for `O=c1[nH]c2ccc(Cl)cc2c(NC2CN3CCC2CC3)c1-c1nc2ccccc2[nH]1` (stereo not drawn) [CHIR-124]?
Answer: pIC50 (UniProt B9ZSI3): < 4.70; pIC50 (UniProt C0H4R8): 5.27; pIC50 (UniProt C6KT03): < 4.70; pIC50 (UniProt C6KT64): < 4.70; pIC50 (UniProt C6KTB4): < 4.70; pIC50 (UniProt C6KTB9): < 4.70; pIC50 (UniProt C6S3E1): < 4.70; pIC50 (UniProt O77328): < 4.70; pIC50 (UniProt O96220): < 4.70; pIC50 (UniProt O97225): < 4.70; pIC50 (UniProt P27362): < 4.70; pIC50 (UniProt P61076): < 4.70; pIC50 (UniProt Q76NL8): < 4.70; pIC50 (UniProt Q7K6A8): < 4.70; pIC50 (UniProt Q8I0V4): < 4.70; pIC50 (UniProt Q8I1N8): < 4.70; pIC50 (UniProt Q8I1V2): < 4.70; pIC50 (UniProt Q8I207): < 4.70; pIC50 (UniProt Q8I3X4): < 4.70; pIC50 (UniProt Q8I3Y9): < 4.70; pIC50 (UniProt Q8I4Q5): < 4.70; pIC50 (UniProt Q8IAM2): < 4.70; pIC50 (UniProt Q8IBS3): < 4.70; pIC50 (UniProt Q8ID31): < 4.70; pIC50 (UniProt Q8IE84): < 4.70; pIC50 (UniProt Q8IEL1): 5.54; pIC50 (UniProt Q8IEM3): < 4.70; pIC50 (UniProt Q8IHT9): < 4.70; pIC50 (UniProt Q8IHZ9): < 4.70; pIC50 (UniProt Q8IIV2): < 4.70; pIC50 (UniProt Q8IIV8): < 4.70; pIC50 (UniProt Q8IJ74): < 4.70; pIC50 (UniProt Q8IJG6): < 4.70; pIC50 (UniProt Q8IJP8): < 4.70; pIC50 (UniProt Q8IJX0): < 4.70; pIC50 (UniProt Q8IKA0): < 4.70; pIC50 (UniProt Q8IL88): < 4.70; pIC50 (UniProt Q8ILW6): < 4.70
